Results published in the supplement of paper PMC11061612.

What was measured:
Carboplatin = compound: C1CC(C1)(C(=O)[O-])C(=O)[O-].N.N.[Pt+2] [Carboplatin]; details: max 10 µM
In short: (§1)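 Cancer cell lines were seeded in 1536-well plates in 7.5 μl DMEM/F12 or RPMI with 10% FBS, held 24 hours at 37°C and 5% CO2, then dosed for 72 hours (final DMSO typically 0.2%). Viability was read by CellTiter-Glo 2.0 luminescence and scaled between blank-well and DMSO-well means. The single-agent IC50 comes from dose responses fitted to a two-parameter logistic curve with a non-linear mixed effects model.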

AZD5363 = compound: C1CN(CCC1(C(=O)N[C@@H](CCO)C2=CC=C(C=C2)Cl)N)C3=NC=NC4=C3C=CN4 [AZD5363]; details: max 10 µM
In short: as §1

AZD1775 = compound: C=CCn1c(=O)c2cnc(Nc3ccc(N4CCN(C)CC4)cc3)nc2n1-c1cccc(C(C)(C)O)n1 [AZD1775]; details: max 3 µM
In short: as §1

Trametinib = compound: CC(=O)Nc1cccc(-n2c(=O)n(C3CC3)c(=O)c3c(Nc4ccc(I)cc4F)n(C)c(=O)c(C)c32)c1 [Trametinib]; details: max 1 µM
In short: as §1

Paclitaxel = compound: CC(=O)O[C@H]1C(=O)[C@@]2(C)[C@H]([C@H](OC(=O)c3ccccc3)[C@]3(O)C[C@H](OC(=O)[C@H](O)[C@@H](NC(=O)c4ccccc4)c4ccccc4)C(C)=C1C3(C)C)[C@]1(OC(C)=O)CO[C@@H]1C[C@@H]2O [Paclitaxel]; details: max 3 µM
In short: as §1

Palbociclib = compound: CC(=O)c1c(C)c2cnc(Nc3ccc(N4CCNCC4)cn3)nc2n(C2CCCC2)c1=O [Palbociclib]; details: max 10 µM
In short: as §1

AZD1390 = compound: CC(C)n1c(=O)n(C)c2cnc3cc(F)c(-c4ccc(OCCCN5CCCCC5)nc4)cc3c21 [AZD1390]; details: max 0.3 µM
In short: as §1

Venetoclax = compound: CC1(C)CCC(CN2CCN(c3ccc(C(=O)NS(=O)(=O)c4ccc(NCC5CCOCC5)c([N+](=O)[O-])c4)c(Oc4cnc5[nH]ccc5c4)c3)CC2)=C(c2ccc(Cl)cc2)C1 [Venetoclax]; details: max 1 µM
In short: as §1

Dasatinib = compound: CC1=C(C(=CC=C1)Cl)NC(=O)C2=CN=C(S2)NC3=CC(=NC(=N3)C)N4CCN(CC4)CCO [Dasatinib]; details: max 2 µM
In short: as §1

SG3199 = compound: CC1=CN2[C@@H](C1)C=NC3=CC(=C(C=C3C2=O)OC)OCCCCCOC4=C(C=C5C(=C4)N=C[C@@H]6CC(=CN6C5=O)C)OC [SG3199]; details: max 0.001 µM
In short: as §1

AZD2811 = compound: CCN(CCO)CCCOc1ccc2c(Nc3cc(CC(=O)Nc4cccc(F)c4)[nH]n3)ncnc2c1 [AZD2811]; details: max 1 µM
In short: as §1

SN-38 = compound: CCc1c2c(nc3ccc(O)cc13)-c1cc3c(c(=O)n1C2)COC(=O)[C@]3(O)CC [SN-38]; details: max 0.3 µM
In short: as §1

AZD0156 = compound: CN(C)CCCOc1ccc(-c2ccc3ncc4c(c3c2)n(C2CCOCC2)c(=O)n4C)cn1 [AZD0156]; details: max 3 µM
In short: as §1

AZD4320 = compound: CN(CC[C@H](CSC1=CC=CC=C1)NC2=C(C=C(C=C2)S(=O)(=O)NC(=O)C3=CC=C(C=C3)N4CCC(CC4)[C@H](C5=CC=CC=C5C6=CC=C(C=C6)Cl)O)S(=O)(=O)C(F)(F)F)CCO [AZD4320]; details: max 1 µM
In short: as §1

Alisertib = compound: COc1cc(Nc2ncc3c(n2)-c2ccc(Cl)cc2C(c2c(F)cccc2OC)=NC3)ccc1C(=O)O [Alisertib]; details: max 10 µM
In short: as §1

Etoposide = compound: COc1cc([C@@H]2c3cc4c(cc3[C@@H](O[C@@H]3O[C@@H]5CO[C@@H](C)O[C@H]5[C@H](O)[C@H]3O)[C@H]3COC(=O)[C@H]23)OCO4)cc(OC)c1O [Etoposide]; details: max 10 µM
In short: as §1

Gefitinib = compound: COc1cc2ncnc(Nc3ccc(F)c(Cl)c3)c2cc1OCCCN1CCOCC1 [Gefitinib]; details: max 10 µM
In short: as §1

Prexasertib = compound: COc1cccc(OCCCN)c1-c1cc(Nc2cnc(C#N)cn2)n[nH]1 [Prexasertib]; details: max 1 µM
In short: as §1

Doxorubicin = compound: COc1cccc2c1C(=O)c1c(O)c3c(c(O)c1C2=O)C[C@@](O)(C(=O)CO)C[C@@H]3O[C@H]1C[C@H](N)[C@H](O)[C@H](C)O1 [Doxorubicin]; details: max 1 µM
In short: as §1

AZD5153 = compound: COc1nnc2ccc(N3CCC(c4ccc(OCCN5CCN(C)C(=O)[C@H]5C)cc4)CC3)nn12 [AZD5153]; details: max 1 µM
In short: as §1

Lapatinib = compound: CS(=O)(=O)CCNCc1ccc(-c2ccc3ncnc(Nc4ccc(OCc5cccc(F)c5)c(Cl)c4)c3c2)o1 [Lapatinib]; details: max 10 µM
In short: as §1

AZD8186 = compound: C[C@@H](Nc1cc(F)cc(F)c1)c1cc(C(=O)N(C)C)cc2c(=O)cc(N3CCOCC3)oc12 [AZD8186]
In short: as §1

Crizotinib = compound: C[C@@H](Oc1cc(-c2cnn(C3CCNCC3)c2)cnc1N)c1c(Cl)ccc(F)c1Cl [Crizotinib]; details: max 10 µM
In short: as §1

Savolitinib = compound: C[C@@H](c1ccc2nccn2c1)n1nnc2ncc(-c3cnn(C)c3)nc21 [Savolitinib]; details: max 1 µM
In short: as §1

AZD6738 = compound: C[C@@H]1COCCN1C2=NC(=NC(=C2)C3(CC3)[S@](=N)(=O)C)C4=C5C=CNC5=NC=C4 [AZD6738]; details: max 10 µM
In short: as §1

AZD5991 = compound: Cc1c2c(nn1C)CSCc1cc(n(C)n1)CSc1cc(c3ccccc3c1)OCCCc1c(C(=O)O)n(C)c3c-2c(Cl)ccc13 [AZD5991]; details: max 1 µM
In short: as §1

AZD7648 = compound: Cc1cc2ncnn2cc1Nc1ncc2c(n1)n(C1CCOCC1)c(=O)n2C [AZD7648]; details: max 10 µM
In short: as §1

Taselisib = compound: Cc1nc(-c2cn3c(n2)-c2ccc(-c4cnn(C(C)(C)C(N)=O)c4)cc2OCC3)n(C(C)C)n1 [Taselisib]; details: max 10 µM
In short: as §1

Selumetinib = compound: Cn1cnc2c(F)c(Nc3ccc(Br)cc3Cl)c(C(=O)NOCCO)cc21 [Selumetinib]; details: max 10 µM
In short: as §1

SRA737 = compound: N#Cc1cnc(Nc2cc(NC[C@H]3CNCCO3)c(C(F)(F)F)cn2)cn1 [SRA737]; details: max 10 µM
In short: as §1

MK-2206 = compound: NC1(c2ccc(-c3nc4ccn5c(=O)[nH]nc5c4cc3-c3ccccc3)cc2)CCC1 [MK-2206]; details: max 10 µM
In short: as §1

Gemcitabine = compound: Nc1ccn([C@@H]2O[C@H](CO)[C@@H](O)C2(F)F)c(=O)n1 [Gemcitabine]; details: max 0.3 µM
In short: as §1

[1] = compound: O=C(Nc1ccc2[nH]nc(-c3ccncc3)c2c1)[C@@H]1CCN(CC(=O)N2CCN(c3ccc(-c4ncccn4)cc3)CC2)C1; details: max 5 µM
In short: as §1

Olaparib = compound: O=C(c1cc(Cc2n[nH]c(=O)c3ccccc23)ccc1F)N1CCN(C(=O)C2CC2)CC1 [Olaparib]; details: max 10 µM
In short: as §1

5-Fluorouracil = compound: O=c1[nH]cc(F)c(=O)[nH]1 [5-Fluorouracil]; details: max 20 µM
In short: as §1

Capivasertib = compound: C1CN(CCC1(C(=O)N[C@@H](CCO)C2=CC=C(C=C2)Cl)N)C3=NC=NC4=C3C=CN4 [Capivasertib]; details: max 10 µM
In short: as §1

Row | Cell Line | IC50, cell viability 72 h (Carboplatin) | IC50, cell viability 72 h (AZD5363) | IC50, cell viability 72 h (AZD1775) | IC50, cell viability 72 h (Trametinib) | IC50, cell viability 72 h (Paclitaxel) | IC50, cell viability 72 h (Palbociclib) | IC50, cell viability 72 h (AZD1390) | IC50, cell viability 72 h (Venetoclax) | IC50, cell viability 72 h (Dasatinib) | IC50, cell viability 72 h (SG3199) | IC50, cell viability 72 h (AZD2811) | IC50, cell viability 72 h (SN-38) | IC50, cell viability 72 h (AZD0156) | IC50, cell viability 72 h (AZD4320) | IC50, cell viability 72 h (Alisertib) | IC50, cell viability 72 h (Etoposide) | IC50, cell viability 72 h (Gefitinib) | IC50, cell viability 72 h (Prexasertib) | IC50, cell viability 72 h (Doxorubicin) | IC50, cell viability 72 h (AZD5153) | IC50, cell viability 72 h (Lapatinib) | IC50, cell viability 72 h (AZD8186; max 10 µM) | IC50, cell viability 72 h (Crizotinib) | IC50, cell viability 72 h (Savolitinib) | IC50, cell viability 72 h (AZD6738) | IC50, cell viability 72 h (AZD5991) | IC50, cell viability 72 h (AZD7648) | IC50, cell viability 72 h (Taselisib) | IC50, cell viability 72 h (Selumetinib) | IC50, cell viability 72 h (SRA737) | IC50, cell viability 72 h (MK-2206) | IC50, cell viability 72 h (Gemcitabine) | IC50, cell viability 72 h [1] | IC50, cell viability 72 h (Olaparib) | IC50, cell viability 72 h (5-Fluorouracil) | IC50, cell viability 72 h (Capivasertib) | IC50, cell viability 72 h (AZD8186; max 3 µM)
1 | A673 (Ewing's Sarcoma) | > 10 µM | > 10 µM | > 3 µM | > 1 µM | 0.00699 µM | > 10 µM | > 0.3 µM | > 1 µM | > 2 µM | > 0.001 µM | 0.132 µM | 0.00259 µM | > 3 µM | 0.169 µM | 1.46 µM | 2.27 µM | > 10 µM | 0.0344 µM | 0.284 µM | > 1 µM | > 10 µM | > 10 µM | > 10 µM | > 1 µM | 1.98 µM | > 1 µM | > 10 µM | 6.72 µM | > 10 µM | > 10 µM | > 10 µM | 0.0178 µM | > 5 µM | > 10 µM | > 20 µM |  | 
2 | BE-13 (T-Lymphoblastic Leukemia) | > 10 µM | > 10 µM | 0.161 µM | > 1 µM | 0.0141 µM | 3.38 µM | > 0.3 µM | > 1 µM | 0.809 µM | > 0.001 µM | 0.0441 µM | 0.0168 µM | > 3 µM | 0.0999 µM | 0.155 µM | 2.34 µM | > 10 µM | 0.0201 µM | 0.326 µM | 0.312 µM | 8.67 µM | > 10 µM | 0.585 µM | > 1 µM | 4.78 µM | > 1 µM | > 10 µM | > 10 µM | > 10 µM | 3.73 µM | 7.6 µM | 0.0899 µM | > 5 µM | > 10 µM | > 20 µM |  | 
3 | BFTC-909 (Kidney Carcinoma) |  |  | 0.579 µM | > 1 µM |  | > 10 µM | > 0.3 µM | > 1 µM | > 2 µM | > 0.001 µM | > 1 µM | 0.0387 µM | > 3 µM | > 1 µM | 7.72 µM |  | > 10 µM | 0.0247 µM | 0.616 µM | 0.909 µM | > 10 µM |  | > 10 µM | > 1 µM | 3.46 µM | > 1 µM | > 10 µM | 3.93 µM | > 10 µM |  | > 10 µM |  |  | > 10 µM |  | 6.1 µM | > 3 µM
4 | CAL-72 (Osteosarcoma) | > 10 µM | > 10 µM | 0.587 µM | > 1 µM | 0.0712 µM | > 10 µM | > 0.3 µM | > 1 µM | > 2 µM | > 0.001 µM | > 1 µM | 0.0423 µM | > 3 µM | > 1 µM | 5.04 µM | 6.02 µM | > 10 µM | 0.0169 µM | > 1 µM | > 1 µM | > 10 µM | > 10 µM | > 10 µM | > 1 µM | 2.87 µM | > 1 µM | > 10 µM | > 10 µM | > 10 µM | > 10 µM | > 10 µM | 0.128 µM | > 5 µM | > 10 µM | > 20 µM |  | 
5 | ESS-1 (Other Solid Carcinomas) | > 10 µM | 5.5 µM | 0.151 µM | 0.989 µM | 0.00506 µM | > 10 µM | > 0.3 µM | > 1 µM | 0.125 µM | > 0.001 µM | 0.533 µM | 0.00256 µM | > 3 µM | > 1 µM | 3.89 µM | 0.5 µM | > 10 µM | 0.00452 µM | 0.0653 µM | 0.319 µM | > 10 µM | 4.5 µM | 4.82 µM | > 1 µM | 1.77 µM | > 1 µM | > 10 µM | 1.06 µM | > 10 µM | 0.93 µM | > 10 µM | 0.0306 µM | 2.98 µM | > 10 µM | > 20 µM |  | 
